Experimental data from US20250263669A1, “INDUCED TOTIPOTENT STEM CELLS AND PREPARATION METHOD THEREFOR” (TSINGHUA UNIVERSITY, priority 2021, published 2025).

Assays:
[1] = system: totipotency genes, maternal genes and ZGA genes; assay: RNA-seq analysis of specific gene sets in totipotent cell induction; type: cell-based, mouse; conditions: for role in induction of totipotent stem cells (upregulation of totipotency genes, maternal genes and ZGA genes): RNA-seq, specific gene sets
Wnt signaling [2] = assay: GO analysis of Wnt signaling-targeted genes in ciTotiSC culture conditions; type: cell-based, mouse; conditions: 1-AKP withdrawn in ciTotiSC culture conditions
Excerpt: (§1) Meanwhile, the inventors also observed a prolongation of the G2 phase of the cell cycle after induction of totipotent stem cells (ciTotiSCs), which was consistent with the difference between early 2C embryos and blastocysts (FIG. 10i).

[3] = system: totipotent stem cells (ciTotiSCs); assay: Cell cycle G2 phase of totipotent stem cells (ciTotiSCs); type: cell-based, mouse; conditions: 1-Azakenpaullone withdrawn from ciTotiSC culture conditions
Excerpt: as §1

Wnt signaling [4] = conditions: studies have shown; cited from earlier work
NF-κB signaling = assay: GO analysis and gene expression after WS6 withdrawal in ciTotiSC culture conditions; type: cell-based, mouse
Excerpt: WS6 is an IKK—NF-κB inhibitor that was previously shown to promote post-mitotic cell proliferation. […] Furthermore, it has been reported that downregulation of NF-κB during zygote development is critical for its totipotent state, and activation of NF-κB triggers subsequent development after ZGA (Akihiko Nishikimi, 1999; Paciolla et al. 2011). Therefore, WS6 may play a role in promoting and stabilizing induction of totipotent stem cells (ciTotiSCs), in part by inhibiting the NF-κB mediated immune response triggered by ERV activation (FIGS. 10k, j).

Question: Which “role in induction of totipotent stem cells (upregulation of totipotency genes, maternal genes and ZGA genes)” value (from here on “role in induction”) [1] does the source give for O=C1Cc2c([nH]c3ccc(Br)cc23)-c2ncccc2N1 [1-Azakenpaullone] here?
Answer: important for the induction of totipotent stem cells

Question: And the “specific Wnt signaling-targeted genes after withdrawal” value (Wnt signaling [2])?
Answer: not up-regulated

Question: What about the “G2 phase prolongation of ciTotiSCs after withdrawal” value [3] of the same molecule?
Answer: reduced

Question: What about the “Wnt signaling downstream gene expression and cell cycle arrest” value (Wnt signaling [4]) of the same molecule?
Answer: induces specific Wnt signaling downstream gene expression and G2/M arrest simultaneously

Question: Which “activation of totipotency, maternal and ZGA genes rich in RAR-binding motifs” value [1] does the source give for C/C(=C\c1ccc(C(=O)O)cc1)c1ccc2c(c1)C(C)(C)CCC2(C)C [TTNPB] here?
Answer: could directly activate

Question: What about the “role in induction” value [1] of the same molecule?
Answer: important for the induction of totipotent stem cells

Question: With CN1CCN(Cc2ccc(NC(=O)Cc3ccc(Oc4cc(NC(=O)C5CC5)ncn4)cc3)cc2C(F)(F)F)CC1 [WS6] as the molecule, how does the “role in induction” value [1] read?
Answer: important for the induction of totipotent stem cells

Question: What about the “expression of genes downstream of NF-κB signaling” value (NF-κB signaling; WS6 withdrawn) of the same molecule?
Answer: up-regulated

Question: And the “GO analysis of differential genes after WS6 ablation” value (NF-κB signaling; ciTotiSC culture conditions)?
Answer: enriched multiple innate immunity-related pathways, especially NF-κB signaling

Question: Which “gene induction in the presence of the RA antagonist” value ([1]; in the presence of AGN193109) does the source give for Cc1ccc(C2=CCC(C)(C)c3ccc(C#Cc4ccc(C(=O)O)cc4)cc32)cc1 [AGN193109] here?
Answer: could not be induced
